Source: patent USRE46511E1, “Fused pyrimidine derivatives for inhibition of tyrosine kinase activity” (HANMI SCIENCE CO., LTD., priority 2010, dated 2017)

Experiments:
JAK3 = molecular target: T1, JAK3 (Homo sapiens, UniProt P52333); test: z-lyte kinase assay, JAK3; assay type: biochemical
T1 construct: purchased Invitrogen
T1 sequence (P52333 1-1124): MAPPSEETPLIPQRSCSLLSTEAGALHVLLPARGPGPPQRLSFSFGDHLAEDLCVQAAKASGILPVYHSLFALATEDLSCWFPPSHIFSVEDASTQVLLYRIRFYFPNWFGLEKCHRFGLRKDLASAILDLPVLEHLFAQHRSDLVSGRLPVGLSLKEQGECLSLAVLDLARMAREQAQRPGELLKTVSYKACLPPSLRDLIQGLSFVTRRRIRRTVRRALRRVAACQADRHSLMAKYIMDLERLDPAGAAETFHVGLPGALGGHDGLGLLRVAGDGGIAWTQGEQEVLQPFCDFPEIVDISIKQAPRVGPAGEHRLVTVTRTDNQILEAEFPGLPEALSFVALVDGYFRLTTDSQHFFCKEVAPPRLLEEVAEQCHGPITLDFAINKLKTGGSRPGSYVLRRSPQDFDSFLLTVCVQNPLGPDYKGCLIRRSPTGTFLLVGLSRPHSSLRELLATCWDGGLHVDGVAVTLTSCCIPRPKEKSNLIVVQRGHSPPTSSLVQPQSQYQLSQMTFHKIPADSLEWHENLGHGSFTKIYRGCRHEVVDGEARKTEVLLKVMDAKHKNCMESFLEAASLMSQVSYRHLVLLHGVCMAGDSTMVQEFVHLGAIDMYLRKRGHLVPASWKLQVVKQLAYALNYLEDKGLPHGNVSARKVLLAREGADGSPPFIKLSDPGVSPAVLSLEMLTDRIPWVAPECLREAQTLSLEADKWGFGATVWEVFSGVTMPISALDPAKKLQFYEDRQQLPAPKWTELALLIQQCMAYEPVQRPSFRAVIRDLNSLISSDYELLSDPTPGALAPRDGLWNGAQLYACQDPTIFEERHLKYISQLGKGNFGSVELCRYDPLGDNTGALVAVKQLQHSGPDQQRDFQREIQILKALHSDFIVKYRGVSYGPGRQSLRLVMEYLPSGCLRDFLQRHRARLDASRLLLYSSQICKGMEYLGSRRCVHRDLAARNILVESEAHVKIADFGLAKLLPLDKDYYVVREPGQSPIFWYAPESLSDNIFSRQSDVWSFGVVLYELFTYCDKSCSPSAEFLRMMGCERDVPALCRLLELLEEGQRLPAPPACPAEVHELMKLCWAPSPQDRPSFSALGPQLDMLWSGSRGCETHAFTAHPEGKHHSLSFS
Procedure, shortened: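 Each kinase was mixed with peptide substrate, compound (dilution series made at 1–0.0001 μM in 4% DMSO) and ATP added from a 5~300 μM solution, then incubated 60 min at RT. After development reagent and stop solution, fluorescence was read at 400 nm excitation/520 nm emission and IC50 calculated.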

RLK = molecular target: T2, RLK (Homo sapiens, UniProt P42681); test: z-lyte kinase assay, RLK; assay type: biochemical
T2 construct: purchased Invitrogen
T2 sequence (P42681 1-527): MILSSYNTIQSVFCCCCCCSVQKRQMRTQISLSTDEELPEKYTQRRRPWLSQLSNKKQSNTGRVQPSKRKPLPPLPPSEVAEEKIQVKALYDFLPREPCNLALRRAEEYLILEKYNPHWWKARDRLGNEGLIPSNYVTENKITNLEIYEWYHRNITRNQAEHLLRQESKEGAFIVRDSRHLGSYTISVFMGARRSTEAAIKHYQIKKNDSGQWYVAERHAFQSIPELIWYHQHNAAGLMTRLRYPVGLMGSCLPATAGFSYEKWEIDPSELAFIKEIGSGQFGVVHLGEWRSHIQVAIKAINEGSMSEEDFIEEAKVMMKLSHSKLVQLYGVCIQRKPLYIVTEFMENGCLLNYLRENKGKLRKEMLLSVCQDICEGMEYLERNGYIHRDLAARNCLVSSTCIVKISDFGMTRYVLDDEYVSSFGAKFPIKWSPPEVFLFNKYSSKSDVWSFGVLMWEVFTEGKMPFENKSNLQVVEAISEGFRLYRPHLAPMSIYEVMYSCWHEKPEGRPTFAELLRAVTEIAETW

[1] = tested on: NCI-H1975 (EGFR L858R/T790M); test: Inhibition test for growth of cancer cell expressing EGFR (MTS), NCI-H1975; assay type: cell-based; details: Homo sapiens; NCI-H1975 cells, 48 hours, MTS; read-out: GI50 NCI-H1975 EGFR L858R/T790M

IC50 (JAK3): ≤ 0.05 µM | IC50 (RLK): ≤ 0.05 µM | GI50 [1]: < 0.05 µM
SMILES: C=CC(=O)Nc1cccc(Oc2nc(Nc3ccc(N4CCN(C)CC4)cc3)nc3ccsc23)c1 [Example 1, N-(3-(2-(4-(4-methylpiperazin-1-yl)phenylamino)thieno[3,2-d]pyrimidine-4-yloxy)phenyl)acrylamide]
